From the supplement of paper PMC10307832

What was measured:
Experiment in all cases: relative viability (nuclei count vs DMSO), 5 days (fraction); higher = more cells survive
[1] = compound: CC1=CC=C(C=C1)C(=O)CN2C3=C(CCCC3)SC2=N [Pifithrin_alpha] + COc1cccc2cc(-c3nc([C@H]4CC[C@H](C(=O)O)CC4)n4ncnc(N)c34)[nH]c12 [OSI-027] (partner 0.5 µM)
Summary of the method: (§1)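 Lung cancer cell lines in 1536-well plates got either a single drug or a fixed anchor-drug dose together with five library-drug doses (not always all listed) in √10 steps, by pin tool, on the day after seeding. Nuclei were counted after 5 days, and relative viability is the treated-to-vehicle ratio of nuclei counts. Values are medians of duplicate plates.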

[2] = compound: CC1=CC=C(C=C1)C(=O)CN2C3=C(CCCC3)SC2=N [Pifithrin_alpha] + Cc1nc(Nc2ncc(C(=O)Nc3c(C)cccc3Cl)s2)cc(N2CCN(CCO)CC2)n1 [Dasatinib] (partner 0.075 µM)
Summary of the method: as §1

Axitinib + Trametinib = compound: CNC(=O)c1ccccc1Sc1ccc2c(/C=C/c3ccccn3)n[nH]c2c1 [Axitinib] + CC(=O)Nc1cccc(-n2c(=O)n(C3CC3)c(=O)c3c(Nc4ccc(I)cc4F)n(C)c(=O)c(C)c32)c1 [Trametinib] (partner 0.02 µM)
Summary of the method: as §1

Axitinib + Phenformin = compound: CNC(=O)c1ccccc1Sc1ccc2c(/C=C/c3ccccn3)n[nH]c2c1 [Axitinib] + N=C(N)NC(=N)NCCc1ccccc1 [Phenformin] (partner 250 µM)
Summary of the method: as §1

| Cell Line | relative viability ([1]; first compound 1 µM) | relative viability ([1]; first compound 3.162 µM) | relative viability ([1]; first compound 10 µM) | relative viability ([1]; first compound 31.62 µM) | relative viability ([1]; first compound 100 µM) | relative viability ([2]; first compound 1 µM) | relative viability ([2]; first compound 3.162 µM) | relative viability ([2]; first compound 10 µM) | relative viability ([2]; first compound 31.62 µM) | relative viability ([2]; first compound 100 µM) | relative viability (Axitinib + Trametinib; first compound 0.005 µM) | relative viability (Axitinib + Trametinib; first compound 0.01581 µM) | relative viability (Axitinib + Trametinib; first compound 0.05 µM) | relative viability (Axitinib + Trametinib; first compound 0.1581 µM) | relative viability (Axitinib + Trametinib; first compound 0.5 µM) | relative viability (Axitinib + Phenformin; first compound 0.005 µM) | relative viability (Axitinib + Phenformin; first compound 0.01581 µM) | relative viability (Axitinib + Phenformin; first compound 0.05 µM) | relative viability (Axitinib + Phenformin; first compound 0.1581 µM) | relative viability (Axitinib + Phenformin; first compound 0.5 µM) |
| --- | --- | --- | --- | --- | --- | --- | --- | --- | --- | --- | --- | --- | --- | --- | --- | --- | --- | --- | --- | --- |
| NCI-H2342 | 0.517 | 0.667 | 0.551 | 0.604 | 0.573 | 0.255 | 0.316 | 0.317 | 0.31 | 0.31 | 0.789 | 0.751 | 0.703 | 0.881 | 0.794 | 0.648 | 0.636 | 0.636 | 0.591 | 0.53 |
| NCI-H1755 | 0.57 | 0.687 | 0.675 | 0.525 | 0.566 | 0.39 | 0.622 | 0.391 | 0.362 | 0.401 | 0.806 | 0.764 | 0.786 | 0.822 | 0.789 | 0.62 | 0.613 | 0.604 | 0.634 | 0.658 |
| SK-LU-1 | 0.353 | 0.353 | 0.354 | – | 0.3 | 0.175 | 0.193 | 0.181 | – | 0.168 | 0.515 | 0.631 | 0.478 | 0.412 | 0.459 | 0.601 | 0.597 | 0.622 | 0.558 | 0.752 |
| NCI-H2126 | – | 0.671 | 0.594 | 0.658 | 0.563 | 0.392 | 0.48 | 0.431 | 0.451 | 0.391 | 0.536 | 0.612 | 0.578 | 0.603 | 0.545 | 0.528 | 0.555 | 0.548 | 0.552 | 0.564 |
| NCI-H1793 | – | 0.249 | 0.201 | 0.218 | 0.198 | – | 0.466 | 0.4 | 0.403 | 0.393 | 0.382 | 0.374 | 0.469 | 0.408 | 0.447 | 0.393 | 0.4 | 0.415 | 0.358 | 0.328 |
| HOP-62 | 0.836 | 0.811 | 0.955 | 0.635 | 0.921 | 0.726 | 0.589 | 0.578 | 0.698 | 0.638 | 0.404 | 0.351 | 0.404 | 0.431 | 0.454 | 0.73 | 0.63 | 0.742 | 0.665 | 0.853 |
| NCI-H1395 | 0.541 | 0.629 | 0.617 | 0.432 | 0.643 | 0.407 | 0.419 | 0.371 | 0.399 | 0.386 | 1 | 0.789 | 0.941 | 0.911 | 1.02 | 0.485 | 0.382 | 0.465 | 0.441 | 0.45 |
| NCI-H2347 | 0.467 | 0.467 | 0.431 | 0.328 | 0.367 | 0.273 | 0.309 | 0.301 | 0.333 | 0.291 | 0.257 | 0.292 | 0.427 | 0.279 | 0.318 | 0.454 | 0.405 | 0.529 | 0.393 | 0.259 |
| HCC-15 | 0.503 | 0.61 | 0.611 | 0.376 | 0.485 | 0.634 | 0.61 | 0.485 | 0.275 | 0.264 | 0.403 | 0.417 | 0.378 | 0.372 | 0.383 | 0.469 | 0.458 | 0.51 | 0.472 | 0.464 |
| PC-14 | 0.822 | 0.889 | 0.827 | 0.464 | 0.605 | 0.207 | 0.166 | 0.134 | 0.0654 | 0.0425 | 0.763 | 0.789 | 0.879 | 0.759 | 1.04 | 0.645 | – | 0.714 | 0.559 | 0.797 |
| NCI-H2085 | – | 0.781 | 0.473 | 0.505 | 0.398 | 0.205 | 0.262 | 0.222 | 0.268 | 0.174 | 0.561 | 0.496 | 0.56 | 0.546 | 0.548 | 0.767 | 0.728 | 0.742 | 0.751 | 0.733 |
| HCC-827 | 0.807 | 0.912 | 0.823 | 0.713 | 0.774 | 0.336 | 0.333 | 0.351 | 0.429 | 0.363 | 0.572 | 0.519 | 0.552 | 0.548 | 0.518 | 0.408 | 0.4 | 0.419 | 0.381 | 0.459 |
| NCI-H522 | 0.439 | 0.624 | 0.668 | 0.761 | 0.777 | 0.972 | 0.887 | 0.779 | 0.757 | 0.816 | 0.87 | 0.752 | 0.853 | 0.633 | 0.81 | 0.537 | 0.669 | 0.698 | 0.555 | 0.658 |
| ChaGo-K-1 | 0.374 | 0.479 | 0.53 | 0.321 | 0.482 | 0.641 | 0.594 | 0.614 | 0.509 | 0.497 | 0.872 | 0.874 | 0.902 | 0.858 | 0.887 | 0.467 | 0.428 | 0.506 | 0.437 | 0.469 |
| H3255 | 0.552 | 0.608 | 0.504 | 0.521 | 0.572 | 0.29 | 0.344 | 0.308 | 0.32 | 0.274 | 0.573 | – | 0.551 | 0.486 | 0.558 | 0.368 | 0.236 | 0.335 | 0.358 | 0.377 |
| LOU-NH91 | 0.592 | 0.692 | 0.703 | 0.655 | 0.595 | 0.371 | 0.501 | 0.535 | 0.475 | 0.493 | 0.778 | 0.732 | 0.807 | 0.766 | 0.818 | 0.763 | 0.523 | 0.875 | 0.684 | 0.695 |
